Data: US20250230153A1, “2,3-DIHYDROBENZO[B][1,4]DIOXIN-6-YL CONTAINING COMPOUNDS USEFUL AS IMMUNOMODULATORS” (BRISTOL-MYERS SQUIBB COMPANY, priority 2021, published 2025)
Structures can show the parent of a compound that is named as a salt.

Target: PD-1/PD-L1 (Homo sapiens (Human), UniProt Q9NZQ7)
Assay: PD-1/PD-L1 Homogenous Time-Resolved Fluorescence (HTRF) binding assay
Details: PD-1-Ig (20 nM final)/PD-L1-His (10 nM final) binding assay
Method in brief: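 Compounds pre-incubated 15 min with human PD-L1(18-239)-His (10 nM final), then 15 min with PD-1(25-167)-Ig (20 nM final), in dPBS with 0.1% BSA and 0.05% Tween-20. Detection with Eu-cryptate anti-Ig (1 nM) and APC anti-His (20 nM) after 30 min equilibration; 665/620 nm ratio read.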

Chain of PD-1/PD-L1 (Q9NZQ7 18-239): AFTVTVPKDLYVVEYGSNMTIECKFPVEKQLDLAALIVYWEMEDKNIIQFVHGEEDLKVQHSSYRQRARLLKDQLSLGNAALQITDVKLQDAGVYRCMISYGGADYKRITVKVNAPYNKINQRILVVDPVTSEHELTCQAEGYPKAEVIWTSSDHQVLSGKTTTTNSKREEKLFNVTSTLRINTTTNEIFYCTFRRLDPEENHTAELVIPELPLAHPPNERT

IC50 [nM] | Structure (SMILES)
6.5 | Cc1c(COc2cc(OCc3cncc(C(=O)N[C@@H](CCCNC(=N)N)C(=O)O)c3)c(CN3CC[C@H](O)C3)cc2Cl)cccc1-c1ccc2c(c1)OCCO2 [Example 2010, (S)-2-(5-((4-chloro-5-((3-(2,3-dihydrobenzo[b][1,4]dioxin-6-yl)-2-methylbenzyl)oxy)-2-(((S)-3-hydroxypyrrolidin-1-yl)methyl)phenoxy)methyl)nicotinamido)-5-guanidinopentanoic acid]
26.5 | Cc1c(COc2cc(OCC3CNCCO3)c(CN3CCCC[C@H]3C(=O)O)cc2Cl)cccc1-c1ccc2c(c1)OCCO2 (stereo partly drawn) [Example 2011, (2S)-1-(5-Chloro-4-((3-(2,3-dihydrobenzo[b][1,4]dioxin-6-yl)-2-methylbenzyl)oxy)-2-(morpholin-2-ylmethoxy)benzyl)piperidine-2-carboxylic acid acetic acid salt]
28.5 | Cc1c(COc2cc(OCC3CCCN(C)C3)c(CN3CCCC[C@H]3C(=O)O)cc2Cl)cccc1-c1ccc2c(c1)OCCO2 (stereo partly drawn) [Example 2012, (2S)-1-(5-Chloro-4-((3-(2,3-dihydrobenzo[b][1,4]dioxin-6-yl)-2-methylbenzyl)oxy)-2-((1-methylpiperidin-3-yl)methoxy)benzyl)piperidine-2-carboxylic acid]
